target: human GPR40 (Homo sapiens, UniProt O14842); experiment: Inositol Phosphate Turnover (IP1) Assay 2; type: cell-based; parameters: expressed in transfected cells; details: HEK cells stably expressing human GPR40, Table 2, read-out: Human IP1
Description: Human and mouse GPR40 stable cell-lines were generated in CHO cells stably expressing NFAT BLA (Beta-lactamase). A human GPR40 stable cell-line was generated in HEK cells stably expressing the aequorin expressing reporter. The expression plasmids were transfected using lipofectamine (Life Technologies) following manufacturer's instructions. Stable cell-lines were generated following drug selection.
The assay is performed in 384-well format. HEK cells stably expressing human GPR40 are plated at 15,000 cells per well in growth medium (DMEM/10% fetal calf serum). Cell plates are then incubated 16 hours at 37 degrees in a 5% CO2 incubator.
Measurement of Inositol Phosphate Turnover (IP1) is performed using the CisBio IP-One kit (Part number 62IPAPEB). After the 16 hour incubation, the cells are washed with HEPES buffer and 10 ul of stimulation buffer (prepared as described in the kit) is added to each well. In a separate plate, compounds are diluted in DMSO (400-fold over the final concentration in the assay well) and 25 nl is acoustically transferred to the appropriate well in the assay cell plate. The plates are then incubated for 60 minutes at 37 degrees. 10 ul of detection buffer (also prepared as described in the IP-One kit) is added to each well and the plates are incubated for 60 minutes in the dark. The plates are then read in a Perkin Elmer EnVision or equivalent reader able to measure FRET.

Sequence of human GPR40 (O14842 whole entry): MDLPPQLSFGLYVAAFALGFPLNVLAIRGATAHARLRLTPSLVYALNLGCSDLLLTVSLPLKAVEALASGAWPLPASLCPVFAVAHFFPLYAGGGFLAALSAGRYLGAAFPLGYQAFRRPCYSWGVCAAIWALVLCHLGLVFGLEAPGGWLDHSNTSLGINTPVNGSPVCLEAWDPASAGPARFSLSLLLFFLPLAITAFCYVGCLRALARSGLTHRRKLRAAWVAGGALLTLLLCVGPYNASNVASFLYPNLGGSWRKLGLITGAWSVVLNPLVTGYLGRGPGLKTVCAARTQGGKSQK

Question: Which EC50 does the source give for `COc1ccc(F)c(-c2cnc(C3CCc4ccc([C@H](C5CC5)[C@H](C)C(=O)O)cc4O3)cc2OC)c1` (single isomer, unassigned) [Example 108a] here?
Answer: 263 nM

Question: Which EC50 does the source give for `COc1ccc(F)c(-c2cnc(C3CCc4ccc([C@H](C5CC5)[C@H](C)C(=O)O)cc4O3)cc2OC)c1` (single isomer, unassigned) [Example 108b] here?
Answer: 5.8 nM

Question: For `COc1cc(-c2ccc(C3CCc4ccc([C@H](C5CC5)[C@H](C)C(=O)O)cc4O3)c(F)c2)c(F)cn1` (single isomer, unassigned) [Example 109a], which EC50 is on record?
Answer: 0.17 nM

Question: How did the EC50 turn out when `COc1cc(-c2ccc(C3CCc4ccc([C@H](C5CC5)[C@H](C)C(=O)O)cc4O3)c(F)c2)c(F)cn1` (single isomer, unassigned) [Example 109b] was run?
Answer: 1.2 nM

Question: `COc1cc(-c2cnc(C3CCc4ccc([C@H](C5CC5)[C@H](C)C(=O)O)cc4O3)c(F)c2)c(F)cn1` (single isomer, unassigned) [Example 110a] was tested. Which EC50 did it give?
Answer: 6.8 nM

Question: How did the EC50 turn out when `COc1cc(-c2cnc(C3CCc4ccc([C@H](C5CC5)[C@H](C)C(=O)O)cc4O3)c(F)c2)c(F)cn1` (single isomer, unassigned) [Example 110b] was run?
Answer: 1.6 nM

Question: `COc1ccc(F)c(-c2ccc(C3CCc4ccc([C@H](C5CC5)[C@H](C)C(=O)O)cc4O3)nc2C(F)(F)F)c1` (single isomer, unassigned) [Example 111a] was tested. Which EC50 did it give?
Answer: 6 nM

Question: How did the EC50 turn out when `COc1ccc(F)c(-c2ccc(C3CCc4ccc([C@H](C5CC5)[C@H](C)C(=O)O)cc4O3)nc2C(F)(F)F)c1` (single isomer, unassigned) [Example 111b] was run?
Answer: 25 nM

Question: `COc1cc(-c2ccc(C3CCc4ccc([C@H](C5CC5)[C@H](C)C(=O)O)cc4O3)nc2)c(F)cn1` (single isomer, unassigned) [Example 112a] was tested. Which EC50 did it give?
Answer: 0.17 nM

Question: `COc1cc(-c2ccc(C3CCc4ccc([C@H](C5CC5)[C@H](C)C(=O)O)cc4O3)nc2)c(F)cn1` (single isomer, unassigned) [Example 112b] was tested. Which EC50 did it give?
Answer: 0.92 nM

Question: With `COc1ccc(F)c(-c2cc(F)c(C3CCc4ccc([C@H](C5CC5)[C@H](C)C(=O)O)cc4O3)nc2C)c1` (single isomer, unassigned) [Example 113a] as the molecule, how does the EC50 read?
Answer: 3.9 nM

Question: `COc1ccc(F)c(-c2cc(F)c(C3CCc4ccc([C@H](C5CC5)[C@H](C)C(=O)O)cc4O3)nc2C)c1` (single isomer, unassigned) [Example 113b] was tested. Which EC50 did it give?
Answer: 14 nM

Question: For `COc1ccc(F)c(-c2cnc(C3CCc4ccc([C@H](C5CC5)[C@H](C)C(=O)O)cc4O3)c(C)c2)c1` (single isomer, unassigned) [Example 115a], which EC50 is on record?
Answer: 4.2 nM

Question: With `COc1ccc(F)c(-c2cnc(C3CCc4ccc([C@H](C5CC5)[C@H](C)C(=O)O)cc4O3)c(C)c2)c1` (single isomer, unassigned) [Example 115b] as the molecule, how does the EC50 read?
Answer: 17.4 nM

Question: For `COc1cc(-c2ccc(C3CCc4ccc([C@H](C5CC5)[C@H](C)C(=O)O)cc4O3)cc2)c(F)cn1` (single isomer, unassigned) [Example 117a], which EC50 is on record?
Answer: 0.89 nM

Question: With `COc1cc(-c2ccc(C3CCc4ccc([C@H](C5CC5)[C@H](C)C(=O)O)cc4O3)cc2)c(F)cn1` (single isomer, unassigned) [Example 117b] as the molecule, how does the EC50 read?
Answer: 0.17 nM

Question: How did the EC50 turn out when `COc1cc(-c2ccc(C3CCc4ccc([C@H](C5CC5)[C@H](C)C(=O)O)cc4O3)cc2)ccn1` (single isomer, unassigned) [Example 118a] was run?
Answer: 1.6 nM

Question: For `COc1cc(-c2ccc(C3CCc4ccc([C@H](C5CC5)[C@H](C)C(=O)O)cc4O3)cc2)ccn1` (single isomer, unassigned) [Example 118b], which EC50 is on record?
Answer: 5.9 nM

Question: With `COc1cc(-c2ccc(C3CCc4ccc([C@H](C5CC5)[C@H](C)C(=O)O)cc4O3)nc2C)ccn1` (single isomer, unassigned) [Example 119a] as the molecule, how does the EC50 read?
Answer: 4.1 nM

Question: `COc1cc(-c2ccc(C3CCc4ccc([C@H](C5CC5)[C@H](C)C(=O)O)cc4O3)nc2C)ccn1` (single isomer, unassigned) [Example 119b] was tested. Which EC50 did it give?
Answer: 7.8 nM

Question: For `COc1cc(-c2ccc(C3CCc4ccc([C@H](C5CC5)[C@H](C)C(=O)O)cc4O3)nc2)ccn1` (single isomer, unassigned) [Example 120a], which EC50 is on record?
Answer: 4.4 nM

Question: Which EC50 does the source give for `COc1cc(-c2ccc(C3CCc4ccc([C@H](C5CC5)[C@H](C)C(=O)O)cc4O3)nc2)ccn1` (single isomer, unassigned) [Example 120b] here?
Answer: 1.9 nM

Question: `COc1ccc(F)c(-c2ccc(C3CCc4ccc([C@@H](CC(=O)O)C5CC5)cc4O3)cn2)c1` (single isomer, unassigned) [Example 122a] was tested. Which EC50 did it give?
Answer: 88 nM

Question: How did the EC50 turn out when `COc1ccc(F)c(-c2ccc(C3CCc4ccc([C@@H](CC(=O)O)C5CC5)cc4O3)cn2)c1` (single isomer, unassigned) [Example 122b] was run?
Answer: 244 nM

Question: How did the EC50 turn out when `COc1ccc(F)c(-c2cnc(C3CCc4ccc([C@H](C5CC5)C(C)C(=O)O)cc4O3)nc2)c1` (single isomer, unassigned) [Example 124a] was run?
Answer: 51 nM

Question: With `COc1ccc(F)c(-c2cnc(C3CCc4ccc([C@H](C5CC5)C(C)C(=O)O)cc4O3)nc2)c1` (single isomer, unassigned) [Example 124b] as the molecule, how does the EC50 read?
Answer: 70 nM

Question: How did the EC50 turn out when `COc1ccc(F)c(-c2ccc(C3CCc4ccc([C@@H](CC(=O)O)C5CC5)cc4O3)cc2C(OC)C(C)(C)C)c1` (single isomer, unassigned) [Example 125a] was run?
Answer: 7.3 nM

Question: Which EC50 does the source give for `COc1ccc(F)c(-c2ccc(C3CCc4ccc([C@@H](CC(=O)O)C5CC5)cc4O3)cc2C(OC)C(C)(C)C)c1` (single isomer, unassigned) [Example 125b] here?
Answer: 8.6 nM

Question: With `COc1ccc(F)c(-c2ccc(C3CCc4ccc([C@@H](CC(=O)O)C5CC5)cc4O3)cc2C(OC)C(C)(C)C)c1` (single isomer, unassigned) [Example 125c] as the molecule, how does the EC50 read?
Answer: 235 nM

Question: `COc1ccc(F)c(-c2ccc(C3CCc4ccc([C@@H](CC(=O)O)C5CC5)cc4O3)cc2C(OC)C(C)(C)C)c1` (single isomer, unassigned) [Example 125d] was tested. Which EC50 did it give?
Answer: 256 nM

Question: For `COc1ccc(F)c(-c2ccc(C3CCc4ccc([C@H](C5CC5)[C@H](C)C(=O)O)cc4O3)nc2C(OC)C(C)(C)C)c1` (single isomer, unassigned) [Example 135a], which EC50 is on record?
Answer: 0.8 nM

Question: With `COc1ccc(F)c(-c2ccc(C3CCc4ccc([C@H](C5CC5)[C@H](C)C(=O)O)cc4O3)nc2C(OC)C(C)(C)C)c1` (single isomer, unassigned) [Example 135b] as the molecule, how does the EC50 read?
Answer: 21 nM

Question: How did the EC50 turn out when `COc1ccc(F)c(-c2ccc(C3CCc4ccc([C@H](C5CC5)[C@H](C)C(=O)O)cc4O3)nc2C(OC)C(C)(C)C)c1` (single isomer, unassigned) [Example 135c] was run?
Answer: 2.8 nM

Question: With `COc1ccc(F)c(-c2ccc(C3CCc4ccc([C@H](C5CC5)[C@H](C)C(=O)O)cc4O3)nc2C(OC)C(C)(C)C)c1` (single isomer, unassigned) [Example 135d] as the molecule, how does the EC50 read?
Answer: 44 nM

Question: How did the EC50 turn out when `COc1ccc(F)c(-c2ccc(C3CCc4ccc(C(C)CC(=O)O)cc4O3)cc2)c1` (single isomer, unassigned) [Example 138, (S or R)-3-((R or S)-2-(2′-fluoro-5′-methoxy-[1,1′-biphenyl]-4-yl)chroman-7-yl)butanoic acid] was run?
Answer: 1200 nM

Question: `COc1ccc(F)c(-c2ccc(C3CCc4ccc(C(C)CC(=O)O)cc4O3)cc2)c1` (single isomer, unassigned) [Example 139] was tested. Which EC50 did it give?
Answer: 116 nM

Question: Which EC50 does the source give for `COc1ccc(F)c(-c2ccc(C3CCc4ccc(C(C)CC(=O)O)cc4O3)cc2)c1` (single isomer, unassigned) [Example 140] here?
Answer: 1230 nM

Question: Which EC50 does the source give for `COc1ccc(F)c(-c2ccc(C3CCc4ccc(C(C)CC(=O)O)cc4O3)cc2)c1` (single isomer, unassigned) [Example 141] here?
Answer: 354 nM

Question: Which EC50 does the source give for `COc1ccc(F)c(-c2ccc(C3CCc4ccc(C(C)C(C)C(=O)O)cc4O3)cc2)c1` (single isomer, unassigned) [Example 142] here?
Answer: 13 nM

Question: How did the EC50 turn out when `COc1ccc(F)c(-c2ccc(C3CCc4ccc(C(C)C(C)C(=O)O)cc4O3)cc2)c1` (single isomer, unassigned) [Example 143] was run?
Answer: 252 nM

Question: Which EC50 does the source give for `COc1ccc(F)c(-c2ccc(C3CCc4ccc(C(C)C(C)C(=O)O)cc4O3)cc2)c1` (single isomer, unassigned) [Example 144] here?
Answer: 1420 nM

Question: Which EC50 does the source give for `COc1ccc(F)c(-c2ccc(C3CCc4ccc(C(C)C(C)C(=O)O)cc4O3)cc2)c1` (single isomer, unassigned) [Example 145] here?
Answer: 77 nM

Question: For `COc1ccc(F)c(-c2ccc(C3CCc4ccc(C(C)C(C)C(=O)O)cc4O3)cc2)c1` (single isomer, unassigned) [Example 146], which EC50 is on record?
Answer: 270 nM

Question: How did the EC50 turn out when `COc1ccc(F)c(-c2ccc(C3CCc4ccc(C(C)C(C)C(=O)O)cc4O3)cc2)c1` (single isomer, unassigned) [Example 147a] was run?
Answer: 9 nM

Question: With `COc1ccc(F)c(-c2ccc(C3CCc4ccc(C(C)C(C)C(=O)O)cc4O3)cc2)c1` (single isomer, unassigned) [Example 147b] as the molecule, how does the EC50 read?
Answer: 3180 nM

Question: How did the EC50 turn out when `COc1ccc(F)c(-c2ccc(C3CCc4ccc(C(C)C(C)C(=O)O)cc4O3)cc2)c1` (single isomer, unassigned) [Example 147c] was run?
Answer: 138 nM

Question: With `COc1ccc(F)c(-c2ccc(C3CCc4ccc([C@H](CC(=O)O)C5CCC5)cc4O3)cc2)c1` (single isomer, unassigned) [Example 148, (3R)-3-cyclobutyl-3-((R or S)-(2-(2′-fluoro-5′-methoxy-[1,1′-biphenyl]-4-yl)chroman-7-yl)propanoic acid] as the molecule, how does the EC50 read?
Answer: 398 nM
